In patent US20250346550A1, “METHODS OF MODULATING ENDONUCLEASE G USING RESVERATROL AND ITS DERIVATIVES” (THE REGENTS OF THE UNIVERSITY OF COLORADO A BODY CORPORATE, priority 2022, published 2025):

Assays:
[1] = test system: PME defect of cps-6(tm3222) embryos; test: PME microscopy assay in cps-6(tm3222) crosses; assay type: in vivo, C. elegans; details: 64-cell embryos, scored as in FIG. 1a (FIG. 6b); DMSO control average of 17 clusters
Excerpt: (§1) The numbers of MTR-stained paternal mitochondrial clusters were scored as in FIG. 1a. cps-6(tm3222) and lgg-1(bp523) alleles were used in the assays. Data are mean±s.e.m. n=20 embryos (b) and 15 embryos (c) in each experiment. **P<0.01; ***P<0.001; n.s., not significant, two-sided, unpaired t-test.
(§2) To investigate how these six compounds might affect PME, the present inventors performed chemical genetic analysis to analyze the PME pathways that might be affected by the compounds. The present inventors first examined whether they might affect the paternal PME pathway mediated by the mitochondrial endonuclease CPS-6, whose activity is inhibited by oxidation and protected by reducing agents.

[2] = test system: PME defect of lgg-1(bp523) embryos (autophagy pathway); test: PME microscopy assay in lgg-1(bp523) crosses; assay type: in vivo, C. elegans; details: FIG. 6c
Excerpt: as §1, §2

[3] = test system: EndoG; details: stated in discussion, no test described; cited from earlier work
[4] = molecular target: T1, CPS-6 (Caenorhabditis elegans, UniProt Q95NM6); test: plasmid DNA cleavage assay; assay type: biochemical, C. elegans; details: 20 μM
T1 construct: Recombinant CPS-6 protein was incubated with the supercoiled plasmid DNA substrate
T1 sequence (Q95NM6 1-308): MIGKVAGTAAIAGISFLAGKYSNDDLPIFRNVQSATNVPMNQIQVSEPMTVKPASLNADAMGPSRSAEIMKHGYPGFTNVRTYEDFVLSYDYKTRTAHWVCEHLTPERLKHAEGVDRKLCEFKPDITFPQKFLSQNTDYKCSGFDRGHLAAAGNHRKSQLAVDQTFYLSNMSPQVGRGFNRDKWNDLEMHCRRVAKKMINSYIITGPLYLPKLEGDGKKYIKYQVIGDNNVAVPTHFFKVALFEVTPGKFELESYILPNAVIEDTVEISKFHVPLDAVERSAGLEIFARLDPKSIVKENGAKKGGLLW
Method: FIG. 3. Resveratrol isomers target CPS-6 to affect PME. a, b, Both cis-resveratrol and trans-resveratrol act paternally to affect PME. The numbers of MTR-stained paternal mitochondrial clusters in embryos at 64-cell (a) or 16-cell (b) stage from the indicated crosses were scored. N2 males or hermaphrodites were pretreated with 0.25% ethanol (Mock), 50 μM cis-resveratrol (a), or 50 μM trans-resveratrol (b) as indicated before mating. c-g, Quantification of MTR-stained paternal mitochondrial clusters in 64-cell embryos from the indicated crosses treated with 0.25% ethanol (Mock), 50 μM cis-resveratrol, and 50 μM trans-resveratrol, respectively. Alleles used are lgg-1(bp523), cps-6(tm3222) and rad-23(tm2595). Data are mean s.e.m; n≥15 embryos (a) and n≥20 embryos (b, c-g) were scored in each experiment. ***P<0.001; n.s., not significant, two-sided, unpaired t-test. h, Resveratrol isomers enhance or inhibit the nuclease activity of CPS-6 in a plasmid DNA cleavage assay. 10 ng of CPS-6 were incubated with 0.25% ethanol (Mock), 20 μM cis-resveratrol, or 20 μM trans-resveratrol in dark at 4° C. for 1.5 hours, before 1 μg of the pPD49.78 plasmid DNA were added to the reactions. After further incubation at 30° C. for 1 hour, the reactions were resolved on a 1% agarose gel. Three different forms of plasmid DNA are indicated.
FIG. 11. Stabilized trans-resveratrol enhances the nuclease activity of CPS-6 in a plasmid DNA cleavage assay and is resistant to UV irradiation. 10 ng of CPS-6 were incubated with 0.25% ethanol (Mock), 20 μM locked trans-resveratrol with or without UV irradiation, 20 μM trans-resveratrol with or without UV irradiation, and 20 μM cis-resveratrol with or without UV irradiation, respectively, in dark at 4° C. for 1.5 hours, before 1 μg of the pPD49.78 plasmid DNA were added to the reactions. After further incubation at 30° C. for 1 hour, the reactions were resolved on a 1% agarose gel. Three different forms of plasmid DNA are indicated. Resveratrol isomers or derivative were subjected to UV irradiation for 3 hours.
Because resveratrol is an antioxidant and the endonuclease activity of CPS-6 is regulated by redox conditions both in vitro and in vivo, we investigated the possibility that resveratrol isomers could directly affect the nuclease activity of CPS-6 using a plasmid DNA cleavage assay. Recombinant CPS-6 protein was incubated with the supercoiled plasmid DNA substrate in the presence or absence of 20 μM trans-resveratrol or cis-resveratrol and the reactions were resolved by an agarose gel. […] Since the nuclease activity of CPS-6 is required for PME, these in vitro results are consistent with the in vivo observations that trans-resveratrol enhances and cis-resveratrol inhibits PME.

[5] = test system: α-synuclein-induced dopaminergic neuronal death in baIn11 animals; test: α-synuclein-based Parkinson's Disease model, DA neuronal death; assay type: in vivo, C. elegans
Excerpt: FIG. 8. […] In each experiment, 300 animals were scored to determine the percentage of animals losing at least one dopaminergic neuron in the head. Data are mean±s.e.m. *P<0.05; ***P<0.001, two-sided, unpaired t-test.
FIG. 13. […] In each experiment, 300 animals were scored to determine the percentage of animals losing at least one of the six dopaminergic neurons in the head. Data are mean±s.e.m. ****P<0.001, two-sided, unpaired t-test.
In addition to PME and apoptosis, EndoG was previously shown to play an important role in mediating dopaminergic (DA) neuronal death induced by expression of human α-synuclein, which is widely considered to be a major proponent of Parkinson's disease. However, the mechanism by which EndoG mediates α-synuclein-induced neurodegeneration is unclear. In a C. elegans α-synuclein-based Parkinson's Disease model, co-expression of GFP and human α-synuclein in C. elegans dopaminergic neurons under the control of the promoter of the dat-1 gene, which encodes a dopamine transporter, from an integrated transgene baIn11 (Pdat-1::gfp/Pdat-1::α-synuclein) caused DA neuronal death in 30% of adult baIn11 animals (FIG. 8a). The cps-6(tm3222) mutation blocked DA neuronal death in adult baIn11 animals (FIG. 8a), confirming that CPS-6 is important for α-synuclein-induced DA neuronal death.

[6] = test system: paternal mitochondrial elimination (PME) in C. elegans wild-type (N2) cross-fertilized embryos; test: PME fluorescent microscopy assay (MTR-stained paternal mitochondrial clusters), N2 males x N2 hermaphrodites; assay type: in vivo; details: 50 μM vs 0.25% ethanol mock (FIG. 1g, FIG. 12)
Method: FIG. 1. […] The numbers of MTR-stained paternal mitochondrial clusters in 64-cell cross-fertilized embryos from mating of MTR-stained N2 males with N2 hermaphrodites in the presence of the indicated compounds (100 μM) were scored. n≥15 embryos for each compound. b, d-g, Quantification of MTR-stained paternal mitochondrial clusters in 64-cell stage embryos (b, d-f) or in embryos at the indicated stage (g) from the cross between MTR-stained N2 males and N2 hermaphrodites, in the presence of 0.25% ethanol (Mock) or 50 μM of the indicated compound. In each experiment, n>40 embryos (b,d,e), n=20 embryos (f), and n≥10 embryos (g) were scored, respectively. […] Data are mean±s.e.m. **P<0.01, ***P<0.001; n.s., not significant, two-sided, unpaired t-test.
FIG. 7. Effects of different dosages of resveratrol isomers on PME. a, b, The effects of different dosages of cis-resveratrol (a) and trans-resveratrol (b) on PME. The numbers of MTR-stained paternal mitochondrial clusters in 64-cell embryos (a) or 16-cell embryos (b) from mating of MTR-stained N2 males with N2 hermaphrodites in the presence of the indicated concentrations of resveratrol isomers were scored. […] N2 hermaphrodites and MTR-stained uaDf5/+ males were mated as indicated in the presence of 0.25% ethanol (Mock, d), 50 μM trans-resveratrol (e), or 50 μM cis-resveratrol (f). Males also carried smIs42, an integrated Psur-5sur-5::gfp transgene, which directs GFP expression in all somatic cells in most developmental stages, and was used to track cross progeny. A single cross-fertilized embryo or larva (MTR- or GFP-positive) at the indicated stage was analyzed by PCR. uaDf5/+ and N2 hermaphrodites were controls.
FIG. 12. […] Quantification of MTR-stained paternal mitochondrial clusters at the indicated embryonic stages from the cross between MTR-stained N2 males and N2 hermaphrodites, in the presence of 0.25% ethanol (Mock) or 50 μM of the indicated compound. In each experiment, n≥10 embryos embryos. Data are mean±s.e.m. **P<0.01, ***P<0.001; n.s., not significant, two-sided, unpaired t-test.
Following fertilization, paternal mitochondria are rapidly depolarized and damaged in fertilized eggs, which could generate and release reactive oxygen species (ROS) that affect PME and embryo development. We thus screened twelve small molecules derived from natural products that have been used as antioxidants for the potential activity in modulating PME (FIG. 6a), using a fluorescent microscopy assay. In this assay, C. elegans wild-type (N2) males prestained with Mitotracker Red (MTR), a mitochondrion-specific fluorescent dye, were mated with unstained N2 hermaphrodites in the presence of the compound of interest ([…]) and the cross-fertilized embryos were examined for the presence of MTR-stained paternal mitochondria or mitochondrial clusters.

[7] = toxicity observed in animal assays; assay type: in vivo, C. elegans; details: neuronal death and tumor assays, 100 μM
Excerpt: As described above, Applicant's successfully synthesized a new compound, stabilized cis-resveratrol.

[8] = test system: germline tumor in daf-16(mu86); cki-2(ok2105); glp-1(ar202) mutant (ET507); test: germline tumor model (ET507); assay type: in vivo, C. elegans; details: 100 μM, ET507 at 20° C., vs 0.25% ethanol (FIG. 14)
Method: FIG. 9. Cis-resveratrol inhibits and trans-resveratrol promotes germline tumor formation. Tumor size and tumor occurring frequency of the daf-16(mu86); cki-2(0k2105); glp-1 (ar202) mutant grown at 20° C. and treated with 1% ethanol (Mock), 200 μM cis-resveratrol (Cis), and 200 μM trans-resveratrol (Trans), respectively, are shown. Tumor assays were performed in triplicate with 100 animals per replicate. a, A five-stage classification was created to measure the tumor size in adult day 5 animals under the Normaski optic. Score 1 denotes the normal gonads seen in wild-type animals. Score 5 denotes enlarged gonads full of mitotic germ cells and without any egg or oocyte. Score 2-4 denote partially enlarged gonads. b, Tumor frequency indicates the percentage of animals with enlarged gonads (score 5). Data from three independent biological replicates are shown as mean±SEM. *P<0.05; **P<0.01; ***P<0.001, two-sided, unpaired t-test.
FIG. 14. stabilized cis-resveratrol inhibits germline tumor formation as well as cis-resveratrol. Tumor occurring frequency of the daf-16 (mu86); cki-2 (0k2105); glp-1 (ar202) mutant (ET507) grown at 20° C. and treated with 0.25% ethanol (Mock), 100 μM cis-resveratrol, and 100 μM Stabilized cis-resveratrol, respectively, are shown. Tumor assays were performed in triplicate with 100 animals per replicate. Data are mean±s.e.m. ****P<0.001, two-sided, unpaired t-test
The present inventors tested whether resveratrol isomers affect tumorigenesis in a C. elegans germline tumor model (ET507), in which three cell growth genes, daf-16, cki-2, and glp-1, are mutated, leading to uncontrolled germ cell proliferation and germline tumor.

Oc1ccc(/C=C/c2cc(O)cc(O)c2)cc1 [resveratrol, 3,5,4′-trihydroxy-trans-stilbene]
effect on PME defect of cps-6(tm3222) embryos, screen compounds [1]: did not affect the PME defect
enhancement of the PME defect in lgg-1 deficient embryos, screen compounds [2]: enhanced the PME defect
affinity of resveratrol to EndoG [3]: nanomolar affinity

Oc1ccc(/N=C/c2cc(O)cc(O)c2)cc1
effect on CPS-6 nuclease activity ([4]; 10 ng CPS-6, pPD49.78 plasmid DNA): similarly enhance the endonuclease activity of CPS-6 like trans-resveratrol
effect on CPS-6 nuclease activity after UV irradiation of the compound ([4]; compound UV irradiated for 3 hours (FIG. 11)): did not alter the activity
adult baIn11 animals with neurodegeneration (DA neuronal loss) ([5]; 50 μM, adult day 2 (FIG. 8c)): 45%
dynamics of PME at different embryonic stages [6]: identical activity in promoting PME

O=C1CCC(c2ccc(O)cc2)=C1c1cc(O)cc(O)c1 [stabilized cis-resveratrol]
toxicity in animal assays [7]: No obvious toxicity was observed
germline tumor formation [8]: comparable activity as cis-resveratrol in strongly suppressing
effect on α-synuclein-induced DA neuronal death ([5]; 100 μM, adult day 2 baIn11 animals vs 0.25% ethanol): comparable activity as cis-resveratrol in strongly suppressing
